{
  "source": "patent US20230235378A1",
  "about": "“LZHEIMER'S DISEASE-SPECIFIC ALTERATIONS OF PROTEIN KINASE C EPSILON (PKC-EPSILON PROTEIN LEVELS” (WEST VIRGINIA UNIVERSITY BOARD OF GOVERNORS ON BEHALF OF …, priority 2010, published 2023)",
  "key": {"purified PKC": {"molecular_target": "T1, purified PKC (Homo sapiens, UniProt Q02156)", "T1 construct": "purchased Calbiochem", "T1 sequence (Q02156 1-737)": "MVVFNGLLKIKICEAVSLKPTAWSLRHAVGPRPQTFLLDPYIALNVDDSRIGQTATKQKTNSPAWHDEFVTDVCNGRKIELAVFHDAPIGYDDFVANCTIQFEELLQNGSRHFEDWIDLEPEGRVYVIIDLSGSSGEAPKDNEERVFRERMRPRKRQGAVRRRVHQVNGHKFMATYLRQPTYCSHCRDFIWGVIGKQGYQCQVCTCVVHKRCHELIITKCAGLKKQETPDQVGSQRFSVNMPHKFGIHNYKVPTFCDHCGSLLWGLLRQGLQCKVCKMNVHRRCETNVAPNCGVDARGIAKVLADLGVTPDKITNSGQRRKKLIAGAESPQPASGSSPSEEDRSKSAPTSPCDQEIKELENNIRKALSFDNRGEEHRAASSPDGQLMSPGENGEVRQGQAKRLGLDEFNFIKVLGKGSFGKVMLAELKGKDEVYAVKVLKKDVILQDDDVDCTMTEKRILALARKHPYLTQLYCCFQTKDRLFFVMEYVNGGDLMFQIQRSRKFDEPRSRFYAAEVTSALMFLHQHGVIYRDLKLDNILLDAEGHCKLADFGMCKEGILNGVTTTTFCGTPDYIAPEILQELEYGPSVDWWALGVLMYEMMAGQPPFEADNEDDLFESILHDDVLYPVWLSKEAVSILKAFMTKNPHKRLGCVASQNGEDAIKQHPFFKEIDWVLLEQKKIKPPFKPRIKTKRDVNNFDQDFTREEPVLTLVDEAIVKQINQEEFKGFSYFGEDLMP", "experiment": "PKC isozyme specificity: purified PKC preincubated with compound, activity measured radiometrically", "type": "biochemical", "details": "10 μM; data not shown", "description": "(§1) Protein Kinase C Assay. Rat hippocampal cells were cultured and scraped in 0.2 ml homogenization buffer (20 mM Tris-HCl, pH 7.4, 50 mM NaF, 1 μg/ml leupeptin, and 0.1 mM PMSF) and homogenized by sonication in a Marsonix micro-probe sonicator (5 sec, 10 W). To measure PKC, 10 μl of cell homogenate or purified PKC isozyme (purchased from Calbiochem) was incubated for 15 min at 37° C. in the presence of 10 μM histones, 4.89 mM CaCl2, 1.2 μg/μl phosphatidyl-L-serine, 0.18 μg/μl 1,2-dioctanoyl-sn-glycerol, 10 mM MgCl2, 20 mM HEPES (pH 7.4), 0.8 mM EDTA, 4 mM EGTA, 4% glycerol, 8 μg/ml aprotinin, 8 μg/ml leupeptin, and 2 mM benzamidine. 0.5 μCi [γ-32P]ATP was added and 32P-phosphoprotein formation was measured by adsorption onto phosphocellulose as described previously. Nelson and Alkon, J. Neurochemistry. 1995; 65: 2350-57. For measurements of activation by BR-101 (DCP-LA) and similar compounds, PKC activity was measured in the absence of diacylglycerol and phosphatidylserine, as described by Kanno et al., and PKC δ, ε, η, and were measured in the absence of added EGTA and CaCl2, as described by Kanno et al., J. Lipid Res. 2006; 47: 1146-50. Low concentrations of Ca2+ are used because high Ca2+ interacts with the PKC phosphatidylserine binding site and prevents activation. For measurements of bryostatin activation, 1,2-diacylglycerol was omitted unless otherwise stated.\n(§2) To determine their PKC isozyme specificity, the new compounds were preincubated with purified PKC for five minutes and the PKC activity was measured radiometrically."}, "PKCδ": {"molecular_target": "T2, PKCδ (Homo sapiens, UniProt Q05655)", "T2 construct": "purchased Calbiochem", "T2 sequence (Q05655 whole entry)": "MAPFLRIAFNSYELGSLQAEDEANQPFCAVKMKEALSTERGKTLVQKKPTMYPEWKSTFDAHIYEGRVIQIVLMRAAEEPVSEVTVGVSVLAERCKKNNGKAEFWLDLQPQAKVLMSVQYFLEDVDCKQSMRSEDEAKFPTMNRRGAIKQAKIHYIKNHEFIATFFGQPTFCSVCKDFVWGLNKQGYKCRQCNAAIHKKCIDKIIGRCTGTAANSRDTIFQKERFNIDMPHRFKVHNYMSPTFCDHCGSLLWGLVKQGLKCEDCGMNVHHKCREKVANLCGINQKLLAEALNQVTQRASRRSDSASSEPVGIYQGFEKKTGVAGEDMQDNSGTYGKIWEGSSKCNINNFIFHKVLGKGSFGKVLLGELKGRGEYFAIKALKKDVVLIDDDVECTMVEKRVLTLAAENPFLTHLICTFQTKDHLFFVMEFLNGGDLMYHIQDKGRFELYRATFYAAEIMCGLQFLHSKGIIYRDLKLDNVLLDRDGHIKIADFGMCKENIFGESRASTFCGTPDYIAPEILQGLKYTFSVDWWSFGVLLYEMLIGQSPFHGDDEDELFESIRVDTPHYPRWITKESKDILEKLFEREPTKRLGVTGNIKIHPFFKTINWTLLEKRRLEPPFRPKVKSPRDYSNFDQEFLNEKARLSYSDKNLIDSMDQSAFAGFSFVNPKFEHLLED", "experiment": "PKC isozyme specificity: PKCδ", "type": "biochemical", "details": "about 1-100 μM; data not shown", "description": "as §1, with “Low concentrations of Ca2+ are used because high Ca2+ interacts with the PKC phosphatidylserine binding site and prevents activation. For measurements of bryostatin activation, 1,2-diacylglycerol was omitted unless otherwise stated.” left out\nas §2"}, "PKCγ": {"molecular_target": "T3, PKCγ (Homo sapiens, UniProt P05129)", "T3 construct": "purchased Calbiochem", "experiment": "PKC isozyme specificity: PKCγ", "type": "biochemical", "details": "50-100 μM; data not shown", "description": "as §1, with “Low concentrations of Ca2+ are used because high Ca2+ interacts with the PKC phosphatidylserine binding site and prevents activation. For measurements of bryostatin activation, 1,2-diacylglycerol was omitted unless otherwise stated.” left out\nas §2"}, "Aß": {"test_system": "Aß", "experiment": "Aß production in N2a neuroblastoma cells transfected with human APPSwe/PS1D (Aß 1-42 ELISA)", "type": "cell-based, mouse", "description": "(§3) Aß Measurement and Cell Viability Assay. Aß was measured using an Aß 1-42 human fluorimetric ELISA kit (Invitrogen) according to the manufacturer's instructions. Results were measured in a Biotek Synergy HT microplate reader. AlamarBlue and CyQuant NF (Invitrogen) according to the manufacturer's instructions.\nTo measure the effects of PKC activation on Aß production, we used mouse neuro2a (N2a) neuroblastoma cells transfected with human APPSwe/PS1D, which produce large quantities of Aβ. Petanceska et al., J. Neurochem. 1996; 74: 1878-84. […] With bryostatin, which activates PKC by binding to the diacylglycerol-binding site, the inhibition was biphasic, with concentrations of 20 nM or higher producing no net effect. This may be explained by the ability of this class of PKC activators to downregulate PKC when used at high concentrations."}, "[1]": {"experiment": "Cell viability assay (alamar Blue and CyQuant staining)", "type": "cell-based", "description": "as §3"}, "[2]": {"test_system": "Endothelin-converting enzyme (ECE)", "experiment": "ECE assay in neuroblastoma cells (fluorimetric, McaBK2)", "type": "cell-based, human", "details": "bryostatin 0.27 nM, BR-101 1 μM, BR-111 1", "description": "ECE Assay. SH-5757 neuroblastoma cells were incubated with bryostatin (0.27 nM), BR-101 (DCP-LA) (1 μM), and BR-111 (DHA-CP6) (1 Endothelin-converting enzyme (ECE) was measured fluorimetrically using the method of Johnson and Ahn, Anal. Biochem. 2000; 286: 112-118. A sample of cell homogenate (20 μl) was incubated in 50 mM MES-KOH, pH 6.0, 0.01% C 12E10 (polyoxyethylene-10-lauryl ether), and 15 μM McaBK2 (7-Methoxycoumarin-4-acetyl [Ala7-(2,4-Dinitrophenyl)Lys9]-bradykinin trifluoroacetate salt) (Sigma-Aldrich). After 60 min at 37° C., the reaction was quenched by adding trifluoroacetic acid to 0.5%. The sample was diluted to 1.4 ml with water and the fluorescence was measured at ex=334 nm, em=398 nm."}, "PKCε": {"molecular_target": "T4, PKCε (Homo sapiens, UniProt Q02156)", "T4 construct": "purchased Calbiochem (San Diego, Calif.)", "T4 sequence (Q02156 1-737)": "T1 sequence (Q02156 1-737)", "details": "Kanno et al.; cited from earlier work"}},
  "data": [
    {"smiles": "CCCCCC1CC1CC1CC1CCCCCCCC(=O)O", "note": "(centres unmarked) [BR-101, 8-[2-(2-pentyl-cyclopropylmethyl)-cyclopropyl]-octanoic acid]", "values": [
      {"measurement": "activation of PKC", "setting": "purified PKC", "value": "effective activator"},
      {"measurement": "effect on PKCδ at higher concentrations", "setting": "PKCδ", "value": "partially inhibited"},
      {"measurement": "effect on PKCγ at higher concentrations", "setting": "PKCγ", "value": "activated"},
      {"measurement": "levels of both intracellular and secreted Aß", "setting": "Aß; 24 h incubation, various concentrations", "value": "markedly reduced"},
      {"measurement": "concentration dependence of Aß inhibition", "setting": "Aß; concentrations up to 10 to 100 μM, no evidence of downregulation at higher concentrations", "value": "monotonically increasing inhibition"},
      {"measurement": "effect on cell survival or proliferation", "setting": "[1]", "value": "no effect"},
      {"measurement": "change in ECE activity", "setting": "[2]", "value": "sustained increase"},
      {"measurement": "potency for PKCε over other PKC isozymes", "setting": "PKCε", "value": "greater than 7 fold"}
    ]}
  ]
}
